This is an account of results in PMC6273226, “New Isoxazolidine-Conjugates of Quinazolinones—Synthesis, Antiviral and Cytostatic Activity” (Molecules, 2016).

Where only a bound is given, the exact number is not on record here.

In one data set the test system is TK+ VZV Oka strain. Briefly: microbe, parasite or virus in culture. The class given is cell-based, varicella-zoster virus. Conditions: Human alphaherpesvirus 3, HEL, read-out: Antiviral Activity EC50 TK+ VZV Strain.
A further data set relates to TK- VZV 07-1 strain. Briefly: microbe, parasite or virus in culture. The format is cell-based, varicella-zoster virus. Conditions: Human alphaherpesvirus 3, HEL, read-out: Antiviral Activity EC50 TK- VZV Strain.
For a further data set, the system named is murine leukemia L1210. Put plainly: Cytostatic activity, inhibition of L1210 cell proliferation. The format is cell-based. To be noted: Mus musculus, L1210, 48 h, read-out: IC50 L1210. As to the method: (§1) The 50% cytostatic inhibitory concentration (IC50) causing a 50% decrease in cell proliferation was determined against murine leukemia L1210, human lymphocyte CEM, human cervix carcinoma HeLa and immortalized human dermal microvacsular endothelial cells (HMEC-1).
(§2) Murine leukemia (L1210), human T-lymphocyte (CEM), human cervix carcinoma (HeLa) and immortalized human dermal microvascular endothelial cells (HMEC-1) were suspended at 300,000–500,000 cells/mL of culture medium, and 100 μL of a cell suspension was added to 100 μL of an appropriate dilution of the test compounds in 200 μL-wells of 96-well microtiter plates. After incubation at 37 °C for two (L1210), three (CEM) or four (HeLa) days, the cell number was determined using a Coulter counter. The IC50 was defined as the compound concentration required to inhibit cell proliferation by 50%.

A further data set concerns human T-lymphocyte (CEM). Briefly: Cytostatic activity, inhibition of CEM cell proliferation. The format is cell-based. To be noted: 72 h, read-out: IC50 CEM. How it is done: as §1, §2
For data set [1], the system named is human cervix carcinoma (HeLa). Briefly: Cytostatic activity, inhibition of HeLa cell proliferation. The format is cell-based. Conditions: 96 h, read-out: IC50 HeLa. As to the method: as §1, §2
The subject of data set [2] is immortalized human dermal microvascular endothelial cells (HMEC-1). Put plainly: Cytostatic activity, inhibition of HMEC-1 cell proliferation. The class given is cell-based. Conditions: inhibition of cell proliferation by 50%. How it is done: as §1, §2
Data set [3] has as its system L1210, CEM, HeLa and HMEC-1 cells. Put plainly: Cytostatic activity against the tested cell lines (L1210, CEM, HeLa, HMEC-1), summarised in text. The class given is cell-based. To be noted: range over L1210, CEM, read-out: IC50 towards the tested cell lines. How it is done: as §1, §2
Data set [4] deals with human embryonic lung (HEL) cells. Conditions: HEL cell cultures; minimum cytotoxic concentration; Table 2 (VZV).
Data set [5] has as its system tobacco mosaic virus (TMV). Details: method as in PMID 23962399. Conditions: ref [30]; cited from earlier work.
Data set [6] concerns various cancer cell lines. Details: method as in doi:10.1002/hlca.201200433, PMID 21495659. Conditions: ref [31],[32]; cited from earlier work.
For a further data set, the system named is Vero cells. Details: method as in doi:10.1016/j.phytol.2015.02.007. To be noted: ref [33]; cited from earlier work.
The subject of another data set is influenza A virus. Further details: method as in PMID 26017319. Conditions: ref [34]; cited from earlier work.

Consider `CCOP(=O)(OCC)[C@H]1C[C@H](c2nc3ccccc3c(=O)n2CC)ON1C` (relative stereo) [trans-11k/cis-11k (97:3), Diethyl trans-(5-(3-ethyl-4-oxo-3,4-dihydroquinazolin-2-yl)-2-methylisoxazolidin-3-yl)phosphonate], for which the EC50 in the data set on TK+ VZV Oka strain stood at 38.8 µM; in the data set with TK- VZV 07-1 strain it was 41.6 µM. The IC50 in the data set on murine leukemia L1210 was 101 ± 17 µM; in the data set with human T-lymphocyte (CEM), 85 ± 13 µM; in data set [1], 97 ± 10 µM; in [2], 86 ± 11 µM; in [3], 85 to 101 µM. Besides, the “Cytotoxicity Cell Morphology MCC” value in data set [4] is recorded as over 100 μM.

As for `O=c1[nH]c(Cc2ccc(O)cc2)nc2ccccc12` [Compound 1, 2-(4-hydroxybenzyl)quinazolin-4(3H)-one], in [5], the “inhibitory properties on the replication of tobacco mosaic virus (TMV)” value was “strong inhibitory properties”. In [6], the “cytotoxicity toward various cancer cell lines” value is listed as “significant cytotoxicity”.

In the case of `O=C(c1ccc(O)cc1)c1nc2ccccc2c(=O)[nH]1` [Compound 2], the melting point was 67 to 68 °C. Also, in data set [5], the “inhibitory properties on the replication of tobacco mosaic virus (TMV)” value is reported as “only slightly active”.

For the molecule `O=c1[nH]c(-c2c[nH]c3ccccc23)nc2ccccc12` [Compound 3], the “cytotoxicity against Vero cells” value in the data set with Vero cells is “cytotoxic”.

Take `O=c1[nH]c(-c2ccncc2)nc2ccccc12` [Compound 4]: the “activity against influenza A virus” value with influenza A virus is on record as “slight activity”.

Consider `O=c1c2ccccc2nc(-c2ccncc2)n1CCCN1CCOCC1` [Compound 5], for which, in the data set with influenza A virus, the “activity against influenza A virus” value was “slight activity”.

For `O=c1c2ccccc2nc(-c2ccncc2)n1CCCn1ccnc1` [Compound 6], the “activity against influenza A virus” value in the data set on influenza A virus is “slight activity”.

In general, EC50 refers to the concentration at which the effect is half-maximal. As a reminder, the IC50 is the midpoint of a concentration-inhibition curve. As a reminder, the melting point is the temperature, or range, at which the solid turns liquid.
